Assay results reported in patent US9062045B2, “Triazolopyridine compounds” (Novartis AG, priority 2012, dated 2015).
Counter-ions that a name gives are not always drawn. Like-named read-outs stand apart in the source and are kept apart here.

Tests used:
[1] = hPDE3 assay ([3H]cAMP scintillation proximity assay); format: biochemical, human; conditions: Table 3-C; title says PDE3, head says c-Met Biochem IC50 [nM]
GTL16 cells = test: GTL16 cell viability assay (CellTiter Glo); conditions: read-out: GTL-16 Proliferation IC50
Description: GTL16 Cell Viability Assay:
GTL16 expresses high level of c-Met receptor tyrosine kinase due to the gene amplification.
GTL16 cells were seeded in DMEM medium with 10% FBS and 1% Pene. & Strep. at 5000 cells/well/90 μL in 96 well plate and incubated overnight for attachment at 37° C. in 5% CO2 incubator. 10-fold serials dilutions of compounds were added to the cell as 10 μL/well. The final assay volume was 100 μl/well. The assay plates were incubated at 37° C. in 5% CO2 incubator for 24 hours. […] The chemiluminescent light unit was read in Envision from Perkin Elmer. All the tests were run at triplicates. The IC50 was calculated using Spotfire software.

[2] = target: c-Met receptor tyrosine kinase, GST-c-MET (969-1390) (Homo sapiens (Human), UniProt P08581); conditions: read-out: c-Met Biochem IC50
Sequence of c-Met receptor tyrosine kinase, GST-c-MET (969-1390) (P08581 969-1390): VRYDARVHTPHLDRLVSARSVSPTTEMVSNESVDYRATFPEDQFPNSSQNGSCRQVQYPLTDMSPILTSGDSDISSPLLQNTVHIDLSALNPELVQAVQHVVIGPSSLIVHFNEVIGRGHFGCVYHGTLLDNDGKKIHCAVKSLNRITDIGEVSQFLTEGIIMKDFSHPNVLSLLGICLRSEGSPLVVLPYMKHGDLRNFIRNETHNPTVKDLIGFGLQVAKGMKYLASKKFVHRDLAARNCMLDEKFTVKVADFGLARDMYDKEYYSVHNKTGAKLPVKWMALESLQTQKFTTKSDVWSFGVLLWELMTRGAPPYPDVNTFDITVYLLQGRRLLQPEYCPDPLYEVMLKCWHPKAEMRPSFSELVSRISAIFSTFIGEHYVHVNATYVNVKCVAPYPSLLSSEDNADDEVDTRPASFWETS
Description: A number of compounds of the present invention were assayed in an antibody based kinase phosphorylation assay as follows.
The EPK kinase assay for c-Met receptor tyrosine kinase was developed, using the purified recombinant GST-fusion protein, containing the cytoplasmic domain of the enzyme.
The kinase assay is based on the LanthaScreen™ technology.
The kinase reactions were performed in 384 well microtiter plates in a total reaction volume of 10.05 μL. The assay plates were prepared with 0.05 μL per well of test compound in the appropriate test concentration, as described under “preparation of compound dilutions”. The reactions were started by combining 5 μL of ATP solution with 5 μL of enzyme-substrate mix (consisting of kinase and substrate). […] Subsequently 5 μL of detection mix (50 mM Tris/HCl, 2 mM DTT, 0.05% Tween20, 20 μM sodium orthovanadate, 1% BSA, 1 nM Tb-PY20 antibody) were added to the stopped reactions. After 45 minutes incubation in dark at room temperature, the plates were measured in a Perkinelmer Envision fluorescence reader.

[3] = dog S-9 incubations; cited from earlier work
[4] = patients treated with SGX523; cited from earlier work
[5] = human liver S-9; cited from earlier work
[6] = monkey liver S-9; cited from earlier work
human platelet PDE3 = human platelet PDE3 (Homo sapiens (Human), UniProt Q14432); test: hPDE3 assay ([3H]cAMP scintillation proximity assay); format: biochemical; conditions: human platelet PDE3
Sequence of human platelet PDE3 (Q14432 whole entry): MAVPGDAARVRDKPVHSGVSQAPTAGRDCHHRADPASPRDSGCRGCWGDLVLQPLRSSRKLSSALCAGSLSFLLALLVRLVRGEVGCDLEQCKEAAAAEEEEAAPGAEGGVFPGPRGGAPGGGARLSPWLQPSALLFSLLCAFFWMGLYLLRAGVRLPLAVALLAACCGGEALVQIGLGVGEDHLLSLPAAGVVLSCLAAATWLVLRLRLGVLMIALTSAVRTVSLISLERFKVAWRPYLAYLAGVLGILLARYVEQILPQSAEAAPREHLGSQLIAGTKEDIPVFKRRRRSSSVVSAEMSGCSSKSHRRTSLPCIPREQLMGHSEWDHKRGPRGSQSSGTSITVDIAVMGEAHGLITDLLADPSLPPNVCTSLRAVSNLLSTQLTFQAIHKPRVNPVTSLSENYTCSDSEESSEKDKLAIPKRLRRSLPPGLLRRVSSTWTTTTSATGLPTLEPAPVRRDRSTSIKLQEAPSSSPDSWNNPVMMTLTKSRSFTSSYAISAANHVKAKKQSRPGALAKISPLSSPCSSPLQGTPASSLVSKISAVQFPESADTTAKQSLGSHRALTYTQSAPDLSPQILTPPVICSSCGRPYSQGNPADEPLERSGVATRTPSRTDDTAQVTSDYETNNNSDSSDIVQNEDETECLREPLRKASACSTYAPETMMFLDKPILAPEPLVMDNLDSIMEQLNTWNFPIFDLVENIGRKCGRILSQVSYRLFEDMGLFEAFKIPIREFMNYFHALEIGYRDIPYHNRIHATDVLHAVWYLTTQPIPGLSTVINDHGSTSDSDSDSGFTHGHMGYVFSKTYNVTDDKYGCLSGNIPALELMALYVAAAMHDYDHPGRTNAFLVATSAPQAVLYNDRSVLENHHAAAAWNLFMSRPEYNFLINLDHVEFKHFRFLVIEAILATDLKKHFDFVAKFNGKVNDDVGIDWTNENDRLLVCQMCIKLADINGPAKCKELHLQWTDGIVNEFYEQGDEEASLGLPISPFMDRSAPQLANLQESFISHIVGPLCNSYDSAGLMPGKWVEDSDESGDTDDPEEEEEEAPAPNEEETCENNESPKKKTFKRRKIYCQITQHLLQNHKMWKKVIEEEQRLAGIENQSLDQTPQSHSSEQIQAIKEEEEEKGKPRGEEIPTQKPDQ
Description: Here, compounds of formula I were screened for their ability to inhibit human PDE3 in the assay based on Amersham Pharmacia Biotech's Phosphodiesterase (PDE) [^3H]-adenosine 3′,5′ cyclic phosphate ([^3H]cAMP) Scintillation Proximity Assay (SPA). The assay is based on the hydrolysis of [^3H]cAMP, by human platelet PDE3, to [^3H]5′-adenoside monophosphate (5′-AMP). The [^3H]5′-AMP is specifically captured by yttrium silicate SPA beads in the presence of zinc sulphate.
• Optiplate and TopSeal-S (Can berra Packard) • Human platelet PDE3 (partially purified from human platelets)—a titration curve of human platelet PDE3 activity was performed to optimise the concentration of hPDE3 required in the assay. • Yttrium silicate SPA beads and [^3H]cAMP (Amersham) • Tris-Base, magnesium chloride, ethylenediaminetetraacetic acid (di-sodium salt), bovine serum albumin BSA and cAMP (Sigma) Solutions and Buffers: • Assay buffer: 7.56 g Tris-Base was dissolved in approximately 800 mL distilled water and the pH adjusted to 7.5 with 1 M hydrochloric acid. 10.3 mL 1 M magnesium chloride and 4.25 mL 0.5 M EDTA were added. The solution was made to 1 L with distilled water and stored at 4° C. On day of use 18 mL of the above solution was removed and 2 mL 5 mg/ml BSA were added thereto. • Enzyme buffer: 10 mM Tris-HCl at pH 7.5, 1 mM EDTA • Yttrium silicate SPA beads: 1 vial was reconstituted in 28 mL distilled water and stored at 4° C. Assay
The assay was performed in a final volume of 100 μL per well of an Optiplate (Canberra Packard). A 10 μL aliquot of the test compound dissolved in DMSO/distilled water was placed in a well of an Optiplate plate, followed by the addition of 80 μL ‘Assay mix’ (5.5 μL [^3H]cAMP and 88 μL “cold” cAMP were diluted to 8.8 mL using assay buffer). The reaction was started by adding 10 μL hPDE3 (50 μL stock hPDE3 solution was diluted 50 fold to 2.5 mL using enzyme buffer). The plate was incubated at room temperature for 30 min, the reaction was then terminated by the addition of 50 μL Yttrium silicate SPA beads (pre-warmed to room temperature) to all wells. […] The plate was sealed using TopSeal-S according to the manufacturer's instructions and counted using a Packard TopCount, each well being counted for 1 min. IC50 values were determined using non-linear regression.

[7] = 2 μM ATP, 60 minutes at room temperature

| IC50 [2, 7] [nM] | IC50 (human platelet PDE3) [nM] | Structure (SMILES) | IC50 (GTL16 cells; GTL16 cells, 24 hours) [nM] | further results |
| --- | --- | --- | --- | --- |
| 3 |  | Cn1cc(-c2ccc3nnc(C(F)(F)c4ccc5ncccc5c4)n3n2)cn1 [Comparator No. 1 (JNJ-38877605), 6-{Difluoro-[6-(1-methyl-1H-pyrazol-4-yl)-[1,2,4]triazolo[4,3-b]pyridazin-3-yl]-methyl}-quinoline, reference compound] | < 10 | IC50 [1]: 4 nM |
|  |  | C/C(=N\OCCO)c1ccc2nnc(Cc3ccc4ncc(N5CCN(C)CC5)cc4c3)n2n1 [Comparator No. 2, 1-{3-[3-(4-Methyl-piperazin-1-yl)-quinolin-6-ylmethyl]-[1,2,4]triazolo[4,3-b]pyridazin-6-yl}-ethanone O-(2-hydroxy-ethyl)-oxime] |  | IC50 [1]: 4 nM |
|  |  | Cn1cc(-c2ccc3nnc(Sc4ccc5ncccc5c4)n3n2)cn1 [Comparator No. 4 (SGX523), 6-[6-(1-Methyl-1H-pyrazol-4-yl)-[1,2,4]triazolo[4,3-b]pyridazin-3-ylsulfanyl]-quinoline] |  | generation of metabolite M11 [3]: absent; renal function of patients [4]: compromised renal function; generation of metabolite M11 [5]: generated; generation of metabolite M11 [6]: generated |
| 19 | 15000 | Cn1cc(-c2ccc3nnc(Sc4ccc5ncc(NC6CCN(C(=O)OC(C)(C)C)CC6)cc5c4)n3c2)cn1 [Example 22, tert-Butyl 4-(6-(6-(1-methyl-1H-pyrazol-4-yl)-[1,2,4]triazolo[4,3-a]pyridin-3-ylthio)quinolin-3-ylamino)piperidine-1-carboxylate] | 2 |  |
| […] | 25000 | Cn1cc(-c2ccc3nnc(Sc4ccc5ncc(N6CCC(N7CCCCC7)CC6)cc5c4)n3c2)cn1 [Example 30, 3-(1,4′-Bipiperidin-1′-yl)-6-(6-(1-methyl-1H-pyrazol-4-yl)-[1,2,4]triazolo[4,3-a]pyridin-3-ylthio)quinoline] | […] |  |
| 3 | 30000 | Cn1cc(-c2cc(F)c3nnc(Sc4ccc5ncc(N6CCC(N7CCCCC7)CC6)cc5c4)n3c2)cn1 [Example 31, 3-(1,4′-Bipiperidin-1′-yl)-6-(8-fluoro-6-(1-methyl-1H-pyrazol-4-yl)-[1,2,4]triazolo[4,3-a]pyridin-3-ylthio)quinoline] | 0.4 |  |
| […] | 26000 | Cn1cc(-c2ccc3nnc(Sc4ccc5ncc(N6CCN(C7CCCCC7)CC6)cc5c4)n3c2)cn1 [Example 32, 3-(4-Cyclohexylpiperazin-1-yl)-6-(6-(1-methyl-1H-pyrazol-4-yl)-[1,2,4]triazolo[4,3-a]pyridin-3-ylthio)quinoline] | 4 |  |
| 45 | 30000 | Cn1cc(-c2ccc3nnc(Sc4ccc5ncc(N6CCN(c7ccccc7)CC6)cc5c4)n3c2)cn1 [Example 34, 6-(6-(1-Methyl-1H-pyrazol-4-yl)-[1,2,4]triazolo[4,3-a]pyridin-3-ylthio)-3-(4-phenylpiperazin-1-yl)quinoline] | 1 |  |
| 4 |  | CC1CN(c2cnc3ccc(Sc4nnc5ccc(-c6cnn(C)c6)cn45)cc3c2)CCO1 (stereo not drawn) [Example 35, 2-Methyl-4-(6-(6-(1-methyl-1H-pyrazol-4-yl)-[1,2,4]triazolo[4,3-a]pyridin-3-ylthio)quinolin-3-yl)morpholine] | 0.4 |  |
| 5 | 16000 | C[C@H]1CN(c2cnc3ccc(Sc4nnc5ccc(-c6cnn(C)c6)cn45)cc3c2)CCO1 [Example 35A, (S)-2-Methyl-4-(6-(6-(1-methyl-1H-pyrazol-4-yl)-[1,2,4]triazolo[4,3-a]pyridin-3-ylthio)quinolin-3-yl)morpholine] | 1 |  |
| 4 |  | C[C@@H]1CN(c2cnc3ccc(Sc4nnc5ccc(-c6cnn(C)c6)cn45)cc3c2)CCO1 [Example 35B, (R)-2-Methyl-4-(6-(6-(1-methyl-1H-pyrazol-4-yl)-[1,2,4]triazolo[4,3-a]pyridin-3-ylthio)quinolin-3-yl)morpholine] | 4 |  |
| 4 | 29000 | C[C@@H]1CN(c2cnc3ccc(Sc4nnc5ccc(-c6cnn(C)c6)cn45)cc3c2)C[C@H](C)N1 [Example 42, 3-((3S,5R)-3,5-Dimethylpiperazin-1-yl)-6-(6-(1-methyl-1H-pyrazol-4-yl)-[1,2,4]triazolo[4,3-a]pyridin-3-ylthio)quinoline] | 0.6 |  |
| […] | 30000 | C[C@H]1CNCCN1c1cnc2ccc(Sc3nnc4c(F)cc(-c5cnn(C)c5)cn34)cc2c1 [Example 46, (S)-6-(8-Fluoro-6-(1-methyl-1H-pyrazol-4-yl)-[1,2,4]triazolo[4,3-a]pyridin-3-ylthio)-3-(2-methylpiperazin-1-yl)quinoline] |  |  |
| […] | 13000 | Fc1cc(-c2cn[nH]c2)cn2c(Sc3ccc4ncc(N5CCOCC5)cc4c3)nnc12 [Example 58, 4-(6-(8-Fluoro-6-(1H-pyrazol-4-yl)-[1,2,4]triazolo[4,3-a]pyridin-3-ylthio)quinolin-3-yl)morpholine] | 8 |  |
| 83 | > 30000 | C/C(=N\O)c1ccc2nnc(Sc3ccc4ncc(CN5CCOCC5)cc4c3)n2c1 [Example 79, (E)-1-(3-(3-(Morpholin-4-yl-methyl)quinolin-6-ylthio)-[1,2,4]triazolo[4,3-a]pyridin-6-yl)ethanone oxime] | 1140 |  |
|  | 30000 | C/C(=N\OCCO)c1cc(F)c2nnc(Sc3ccc4ncc(N5CC[C@H](N(C)C)C5)cc4c3)n2c1 [Example 85, (S,E)-1-{3-[3-(3-dimethylamino-pyrrolidin-1-yl)-quinolin-6-ylthio]-8-fluoro-[1,2,4]triazolo[4,3-a]pyridin-6-yl}ethanone O-(2-hydroxy-ethyl)-oxime] | 23 |  |
|  | 27000 | C/C(=N\OCCO)c1ccc2nnc(Sc3ccc4ncc(N5CCN(C)CC5)cc4c3)n2c1 [Example 86, (E)-1-(3-(3-(4-methylpiperazin-1-yl)quinolin-6-ylthio)-[1,2,4]triazolo[4,3-a]pyridin-6-yl)ethanone O-2-hydroxyethyl oxime] | 51 |  |
|  |  | Cn1cc(-c2ccc3nnc(Sc4ccc5ncccc5c4)n3c2)cn1 [Reference Example No. 63, 6-(6-(1-methyl-1H-pyrazol-4-yl)-[1,2,4]triazolo[4,3-a]pyridin-3-ylthio)quinoline] |  | IC50 [1]: 15 nM |
|  |  | Cn1cc(-c2cnc3ccc(Sc4nnc5ccc(-c6cnn(CCO)c6)cn45)cc3c2)cn1 [Reference Example No. 73, 2-(4-(3-(3-(1-methyl-1H-pyrazol-4-yl)quinolin-6-ylthio)-[1,2,4]triazolo[4,3-a]pyridin-6-yl)-1H-pyrazol-1-yl)ethanol, reference compound] |  | IC50 [1]: 7 nM; IC50 [2]: 5 nM |

| Structure (SMILES) | IC50 [2, 7] [nM] | IC50 (human platelet PDE3) [nM] | IC50 (GTL16 cells; GTL16 cells, 24 hours) [nM] | further results |
| --- | --- | --- | --- | --- |
| Cn1cc(-c2cc(F)c3nnc(Sc4ccc5ncc(N)cc5c4)n3c2)cn1 [Example 55, 6-(8-Fluoro-6-(1-methyl-1H-pyrazol-4-yl)-[1,2,4]triazolo[4,3-a]pyridin-3-ylthio)quinolin-3-amine hydrochloride] |  | > 30000 |  | IC50 (GTL16 cells): 1 nM; IC50 [2]: […] |
| Cn1cc(-c2ccc3nnc(Sc4ccc5ncc(N)cc5c4)n3c2)cn1 [Example 56, 6-(6-(1-Methyl-1H-pyrazol-4-yl)-[1,2,4]triazolo[4,3-a]pyridin-3-ylthio)quinolin-3-amine hydrochloride] |  | 17000 |  | IC50 (GTL16 cells): 33 nM; IC50 [2]: 13 nM |
| c1cc2ncc(N3CCOCC3)cc2cc1Sc1nnc2ccc(-c3cn[nH]c3)cn12 [Example 57, 4-(6-(6-(1H-pyrazol-4-yl)-[1,2,4]triazolo[4,3-a]pyridin-3-ylthio)quinolin-3-yl)morpholine] |  | 10000 | 10 | IC50 [2]: […] |
